According to patent publication US8318947B2, “Comestible compositions comprising high potency savory flavorants, and processes for producing them” (Senomyx, Inc., priority 2006, dated 2012):

Legend:
[1] = system: trained tasters; experiment: Pizza sauce triangle difference taste test; type: in vivo, human
Method: For effective formulation in pizza sauce, a water soluble savory flavor concentrate formulation comprising 0.1% of Compound 1 was developed by dissolution in propylene glycol.
18221.7600 g of propylene glycol (supplied by Gold Coast, Inc.) was weighed out into a 2000 ml stainless steel cylinder, 18.2400 grams of Compound 1 was slowly added to 700.00 g of the propylene glycol using a Silverson Mill (model: L4RT) having a square hole high shear screen and set at 2000 rpm, until all of the dry 5807 (Compound 1) was added to the propylene glycol, the mill rpms was increased to 5,000-6,000 rpm's for 8-10 minutes. The remaining 17,521.76 g of propylene glycol was placed into a 10-gallon steam jacketed kettle equipped with a Lightnin Mixer utilizing a three blade impeller and heated to 50° C. (120° F.), then the milled solution was slowly added to the heated and agitated propylene glycol in the kettle. It took over 30 minutes of heating and mixing to completely solubilize Compound 1, then, the solution was allowed to cool to 80° F., then a Unispense Filler was used to fill sterilized 2 oz. glass containers with 62 grams of the liquid savory flavor, for storage. The water activity of the solution was 0.953@24.7° C., the refractive index was 1.4328, and the final concentration of this savory flavor was 0.10% of Compound 1.
Two pizza sauce samples, one comprising 0.4% of MSG and one containing no MSG, but comprising 1.1 ppm of Compound 1 were prepared using the ingredients listed in Tables 391 and 39-2 below, using the following procedure.
Salt, citric acid, sugar, the spices and herbs, including the MSG, were pre-blended as solids at 80-100 rpms in a 6 quart bowl and mixed using a KitchenAide blender for 5 minutes using a whip attachment. Water was placed in a clean kettle and stirred with a Lightnin mixer at 120-200 rpms to create a vortex. The savory flavor form of Compound 1, 0.10%, was slowly added to the water and mixed for five minutes. The vinegar and solid spice mixture was slowly added with the mixer still blending at 80-100 rpms until the dry seasonings were dissolved, approximately 5 minutes. The tomato paste was added and the slurry was mixed an additional 10. The resulting pizza sauce was transferred to a stainless steel six quart pot on a gas burner and was heated to pasteurizing temperature (175-190° F.) and held for a minimum of two minutes, cooled down to ambient (70+/−2° F.) temperature.
Ten trained tasters were trained to identify relative intensities of the following taste attributes: salty, savory/meaty, umami, brothiness, bitter, linger and off flavors. A triangle difference test determines if there is a sensory difference between two products. Three blinded, coded and randomized samples are presented to the panelist. Two samples are the same and one is different. To answer the test correctly, the panelist must taste all three samples and correctly pick out the sample they feel is different from the other two.
The samples were blind coded and presented in randomized order. The panelists each performed a total of two triangle tests, with 3 samples per test
a. Test 1: 2 samples with 1.1 ppm Compound 1; one sample with MSG.
b. Test 2: 2 samples with MSG; one sample with 1.1 ppm Compound 1.

[2] = system: human subjects, savory taste; experiment: Human taste test of low sodium tomato juice; type: in vivo; settings: 3 μM cpd; 400 mg Na/8 oz tomato juice
Method: Human taste tests were conducted in order to evaluate the ability of the compounds of the invention to enhance the savory flavor of low sodium tomato juice (which naturally comprises some monosodium glutamate).
The final tomato juice samples for taste testing were prepared so as to comprise 90% (by volume) pre-made low sodium tomato juice stock (pH 4.2, 80˜100 mg Na/8 oz, 16 mM of naturally occurring MSG), 5% (by volume) of stock solutions formulated to produce selected final levels of sodium of final juice, and 5% (by volume) of a stock solution of the compound of the invention. Selected oxalamide compounds of the invention were dissolved in LSB (low sodium phosphate buffer), to provide a stock solution at 20 times the desired final concentration in the final tomato juice. The desired final sodium concentration of the final tomato juice was most experiments 73.6 mM (400 mg sodium in 8 oz. of juice), therefore a stock solution of NaCl was made at 1.48 M NaCl. The pH for the stock solutions was adjusted to 4.2 using a 1 M citric acid solution, and the stock solutions were sonicated to ensure the additive compounds were completely dissolved. […]
Scores were averaged across panelists and sessions, and evaluated using a 2-way ANOVA (factors: panelists and samples) and Duncan's multiple comparison test (alpha=0.05) to determine significant differences in intensity ratings.

[3] = Test 1: 2 samples with 1.1 ppm Compound 1, one sample with MSG, 10 panelists
[4] = Test 2: 2 samples with MSG, one sample with 1.1 ppm Compound 1, 10 panelists

SMILES	Distinguishing pizza sauce with compound (no MSG) from pizza sauce with full loading of MSG ([1]; 1.1 ppm Compound 1 vs 0.4% MSG)	# Correct [1, 3]	# Incorrect [1, 3]	# Correct [1, 4]	# Incorrect [1, 4]	# Correct ([1]; Totals, n = 20)	# Incorrect ([1]; Totals, n = 20)	Enhancement of the savory taste of 16 mM glutamate (naturally existing) in low sodium tomato juice [2]
CCCC(CCC)NC(=O)c1ccc2c(c1)OCO2 [Example 1, N-(heptan-4-yl)benzo[d][1,3]dioxole-5-carboxamide]	could not distinguish between the sauces	3	7	6	4	9	11	–
COc1ccc(CNC(=O)C(=O)NCCc2ccccn2)c(OC)c1 [Example 24, N-(2,4-Dimethoxy-benzyl)-N′-(2-pyridin-2-yl-ethyl)-oxalamide]	–	–	–	–	–	–	–	by 1.4 to 1.5-fold
